In ChEMBL document CHEMBL4251747 (Bioorg Med Chem, 2018):

Legend:
[1] = target: T1, Dual specificity protein kinase TTK (Homo sapiens, UniProt P33981); test: Inhibition of full length human Mps1 using fluorescence-labeled H236 peptide as substrate after 60 to 90 mins in presence of ATP by fluorescence assay based Cheng-Prusoff equation analysis
T1 sequence (P33981 whole entry): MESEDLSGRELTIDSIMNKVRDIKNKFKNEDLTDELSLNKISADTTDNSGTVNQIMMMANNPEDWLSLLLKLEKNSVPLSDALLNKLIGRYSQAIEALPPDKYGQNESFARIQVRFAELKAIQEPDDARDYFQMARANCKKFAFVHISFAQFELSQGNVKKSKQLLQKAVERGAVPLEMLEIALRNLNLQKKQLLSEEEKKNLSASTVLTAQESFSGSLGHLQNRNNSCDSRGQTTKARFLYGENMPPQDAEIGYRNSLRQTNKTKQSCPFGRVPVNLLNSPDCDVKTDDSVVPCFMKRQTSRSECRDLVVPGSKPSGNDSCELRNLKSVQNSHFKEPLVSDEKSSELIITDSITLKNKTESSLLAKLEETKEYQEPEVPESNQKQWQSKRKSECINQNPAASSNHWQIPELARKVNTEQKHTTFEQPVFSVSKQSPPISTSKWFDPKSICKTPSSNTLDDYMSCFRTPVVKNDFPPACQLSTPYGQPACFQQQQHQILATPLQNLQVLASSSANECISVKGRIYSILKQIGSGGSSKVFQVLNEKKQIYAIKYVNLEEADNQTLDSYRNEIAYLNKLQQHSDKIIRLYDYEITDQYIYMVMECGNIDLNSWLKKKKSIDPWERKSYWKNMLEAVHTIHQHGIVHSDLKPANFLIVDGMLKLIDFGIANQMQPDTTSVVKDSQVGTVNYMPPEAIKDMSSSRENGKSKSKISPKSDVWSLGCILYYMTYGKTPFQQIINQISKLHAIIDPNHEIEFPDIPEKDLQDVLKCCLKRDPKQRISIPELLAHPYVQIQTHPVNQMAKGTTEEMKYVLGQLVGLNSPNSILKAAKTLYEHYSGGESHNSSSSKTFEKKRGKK

Aurora kinase A = target: T2, Aurora kinase A (Homo sapiens, UniProt O14965); test: Inhibition of full length N-terminal His-tagged Aurora A (unknown origin) using fluorescence-labeled FL-Peptide 21 as substrate after 60 mins in presence of ATP by fluorescence assay based Cheng-Prusoff equation analysis
T2 sequence (O14965 whole entry): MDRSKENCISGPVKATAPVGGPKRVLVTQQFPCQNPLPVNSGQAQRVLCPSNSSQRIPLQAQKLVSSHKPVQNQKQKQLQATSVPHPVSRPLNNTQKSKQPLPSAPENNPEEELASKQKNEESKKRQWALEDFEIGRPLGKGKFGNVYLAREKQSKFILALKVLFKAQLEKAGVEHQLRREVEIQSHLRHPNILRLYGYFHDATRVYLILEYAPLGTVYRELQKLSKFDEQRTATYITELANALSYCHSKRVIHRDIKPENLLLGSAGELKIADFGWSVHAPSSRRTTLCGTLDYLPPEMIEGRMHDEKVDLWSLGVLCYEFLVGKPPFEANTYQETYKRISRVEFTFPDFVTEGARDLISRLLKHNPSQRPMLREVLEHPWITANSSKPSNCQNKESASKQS

[2] = target: Aurora kinase B/Inner centromere protein (Homo sapiens, UniProt Q96GD4); test: Inhibition of human full length N-terminal GST-tagged Aurora B (1 to 344 end residues)/His-tagged INCENP (803 to 918 end residues) expressed in baculovirus expression system using fluorescence-labeled FL-Peptide 21 as substrate after 60 mins in presence of ATP by fluorescence assay based Cheng-Prusoff equation analysis
Aurora kinase B/Inner centromere protein, sequence (Q96GD4 whole entry): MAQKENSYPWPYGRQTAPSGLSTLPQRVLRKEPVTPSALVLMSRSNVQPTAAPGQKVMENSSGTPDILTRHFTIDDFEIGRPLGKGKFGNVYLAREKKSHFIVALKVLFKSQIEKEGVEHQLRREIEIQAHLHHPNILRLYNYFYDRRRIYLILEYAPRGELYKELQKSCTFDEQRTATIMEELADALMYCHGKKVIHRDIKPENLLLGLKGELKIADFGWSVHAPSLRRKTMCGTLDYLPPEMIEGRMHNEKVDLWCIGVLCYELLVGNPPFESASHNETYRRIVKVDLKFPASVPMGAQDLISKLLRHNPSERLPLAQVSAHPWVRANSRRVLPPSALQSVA
Aurora kinase B/Inner centromere protein, sequence (Q9NQS7 whole entry, further chain): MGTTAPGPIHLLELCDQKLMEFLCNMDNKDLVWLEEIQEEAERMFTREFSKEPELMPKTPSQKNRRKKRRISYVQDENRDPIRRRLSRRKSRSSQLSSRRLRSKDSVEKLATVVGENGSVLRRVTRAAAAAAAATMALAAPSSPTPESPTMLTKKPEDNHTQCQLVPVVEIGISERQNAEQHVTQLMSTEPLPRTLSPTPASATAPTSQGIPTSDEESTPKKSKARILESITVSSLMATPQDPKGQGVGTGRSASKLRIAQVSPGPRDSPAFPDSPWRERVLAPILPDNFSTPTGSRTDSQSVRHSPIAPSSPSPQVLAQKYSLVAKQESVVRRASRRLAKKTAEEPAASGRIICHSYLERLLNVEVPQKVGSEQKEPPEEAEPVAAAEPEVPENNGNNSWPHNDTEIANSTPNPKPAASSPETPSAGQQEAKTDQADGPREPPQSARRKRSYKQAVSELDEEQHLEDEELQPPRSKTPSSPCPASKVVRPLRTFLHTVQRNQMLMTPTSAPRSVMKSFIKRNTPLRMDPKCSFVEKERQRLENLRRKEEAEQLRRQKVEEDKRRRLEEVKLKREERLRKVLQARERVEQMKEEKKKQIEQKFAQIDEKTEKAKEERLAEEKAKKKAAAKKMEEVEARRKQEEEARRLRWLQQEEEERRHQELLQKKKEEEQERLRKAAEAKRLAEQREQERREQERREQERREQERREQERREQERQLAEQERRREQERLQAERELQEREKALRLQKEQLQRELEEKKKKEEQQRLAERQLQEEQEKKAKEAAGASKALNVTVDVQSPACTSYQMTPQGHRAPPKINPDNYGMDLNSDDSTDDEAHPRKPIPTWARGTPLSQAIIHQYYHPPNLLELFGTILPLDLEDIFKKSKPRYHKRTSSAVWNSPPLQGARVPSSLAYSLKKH

[3] = Solubility of the compound; format: physicochemical

Structure (SMILES) | Ki [1] | Ki (Aurora kinase A) | Ki [2] | solubility [3]
Cn1cc(-c2ccncc2)cc(N)c1=O | 236 µM | 99.5 µM | 103 µM | 
O=C(Nc1cc(-c2ccncc2)c[nH]c1=O)c1ccccc1 |  |  |  | Insoluble
O=C(Nc1cc(-c2ccnc(NC3CC3)n2)c[nH]c1=O)c1ccccc1 |  |  |  | Insoluble
CN1CCN(c2ccc(C(=O)Nc3cc(-c4ccncc4)c[nH]c3=O)cc2)CC1 |  |  |  | Insoluble
CN(C)Cc1ccc(-c2c[nH]c(=O)c(N)c2)cc1 | 367 µM | > 100 µM | 12.9 µM | 
